Source: patent EP0529622A2, “Cloning and characterization of a cardiac adenylyl cyclase” (AMERICAN CYANAMID COMPANY, priority 1991, dated 1993)
Each block holds one molecule with its values, some of them ahead of it.

Legend:
untransfected CMT cells = assay: Adenylyl cyclase activity assay, membrane from untransfected CMT cells (control); type: biochemical, monkey; details: Control (untransfected CMT cell membrane), ± standard error
Procedure: The adenylyl cyclase activity of a cell transfected with the expression vector pcDNA1 carrying cardiac adenylyl cyclase cDNA is assayed as follows. The transfected CMT cells are washed twice with PBS and scraped in three ml of cold buffer containing 50 mM Tris (pH8.0), 1 mM EDTA, 10 µM PMSF (phenylmethylsulfonylfluoride), 100 U leupeptin, and 50 U egg white trypsin inhibitor (ETI) on ice. The membrane is homogenated in Polytron™ (setting 6 for 10 seconds) and is centrifuged at 800 x g for 10 minutes at 4 °C. The supernatant is further centrifuged at 100 x g for 40 minutes at 4 °C. The resultant pellet is resuspended in 50 mM Tris (pH 8.0), 1 mM EDTA, 1 µM PMSF, 50 U leupeptin, and 50 U ETI, to a concentration of 5 µg/µl. This crude membrane solution is used for the adenylyl cyclase asssay.
The adenylyl cyclase assay is performed by the method of Salomon (21). Briefly, the crude membranes from CMT cells are resuspended in a solution containing 1 mM creatine phosphate, 8 µg/ml creatine phophokinase, 4 mM HEPES (pH 8.0), 2 mM MgCl₂, 0.1 mM c-AMP, 0.1 mM ATP, and ³²P-ATP (0.2-5 µCi/assay tube). […] Cyclic-AMP is separated from ATP by passing through Dowex and alumina columns, and the radioactivity is counted by scintillation counter. The protein concentration of the membranes used are measured by Bradford's method (22), with bovine serum albumin as a standard. […]

cardiac adenylyl cyclase = biological target: T1, cardiac adenylyl cyclase (Canis lupus familiaris, UniProt P30803); assay: Adenylyl cyclase activity assay (method of Salomon), crude membranes of CMT cells transfected with pcDNA113-72; type: biochemical, canine; details: for fold more stimulation than the control: transfected vs untransfected control, 100 µM forskolin
T1 construct: The expression vector containing the full length cDNA is designated pcDNA113-72; expressed in transfected cells; host or cells: monkey kidney CMT cells (COS derivative), transient transfection with pcDNA113-72, crude membrane preparation
From the text: Biochemical characterization of the protein product encoded by this cDNA is obtained using a CMT cell-expression system. The CMT cell is a derivative of the COS cell in which expression of the T-antigen is under the control of a metallothionein promoter. Thus the accumulation of T-antigen in the cell is further enhanced by the addition of heavy metal ion in the medium. The adenylyl cyclase cDNA construct (113-72) is cloned into pcDNA 1, a CMV promoter-driven expression vector with an SV40 enhancer-origin of replication element. A crude membrane preparation is prepared from the transfected CMT cells and a variety of agents known to stimulate adenylyl cyclase are examined (Table I). There is a dose-dependent relationship between the amount of plasmid transfected and the resultant adenylyl cyclase activity, both basal and forskolin-stimulated (0-30 µg per transfection). When the plasmid without insert is transfected, the resultant adenylyl cyclase activity is slightly (∼15%) lower than that of mock-transfected cells. All activities are enhanced several-fold in the transfected cells, as compared to controls, with the forskolin-stimulated activity showing the greatest increase in activity (>6-fold increase over control).
In an example of such expression, twenty µg of the purified plasmid pcDNA 113-72 are transfected into the monkey kidney CMT cells using a modified method of Golub et al. (17). Briefly, the cells are grown to 80% confluence in Dulbecco's modification of Eagle's Medium, 10% fetal calf serum, 2 mM glutamine, 4.5 mg/ml glucose, 10 µg/ml streptomycin sulfate and 60 µg/ml penicillin K. After washing with PBS twice, 0.5 ml of trypsin solution is added. The cells are incubated for 10 minutes, and 20 µg of purified plasmid resuspended in 4 ml of DMEM containing 400 µg/ml DEAE dextran and 0.1 mM chloroquine is added. The cells are incubated for four hours followed by 10% DMSO shock for two minutes. After washing with PBS twice, the induction media, which contains 10% fetal calf serum (FCS), 2 mM glutamine, […], 2 mM penicillin and streptomycin, and 1 µM CdCl₂, 0.1 µM ZnCl₂ in DMEM, is added. The plate is incubated at 37 °C for 72 hours before harvesting.
The biochemical property of this cardiac adenylyl cyclase is examined in a transient expression system using CMT cells (a derivative of COS cells). CMT cells contain T-antigen driven by a methalothionein promoter in the genome. Thus by induction with heavy metal ion in the medium, CMT cells could produce more T-antigen than COS cells. A 4.3 kb fragment of the adenylyl cyclase cDNA (#113-72) containing the whole coding sequence is inserted into the pcDNA1 plasmid described above (Invitrogen).
The adenylyl cyclase activity of a cell transfected with the expression vector pcDNA1 carrying cardiac adenylyl cyclase cDNA is assayed as follows. The transfected CMT cells are washed twice with PBS and scraped in three ml of cold buffer containing 50 mM Tris (pH8.0), 1 mM EDTA, 10 µM PMSF (phenylmethylsulfonylfluoride), 100 U leupeptin, and 50 U egg white trypsin inhibitor (ETI) on ice. The membrane is homogenated in Polytron™ (setting 6 for 10 seconds) and is centrifuged at 800 x g for 10 minutes at 4 °C. The supernatant is further centrifuged at […] for 40 minutes at 4 °C. The resultant pellet is resuspended in 50 mM Tris (pH 8.0), 1 mM EDTA, 1 µM PMSF, 50 U leupeptin, and 50 U ETI, to a concentration of 5 µg/µl. This crude membrane solution is used for the adenylyl cyclase asssay. […]

type V adenylyl cyclase [1] = biological target: T2, type V adenylyl cyclase (Canis lupus familiaris, UniProt P30803); assay: P-site inhibition of adenylyl cyclase activity by adenosine and its analogues, transfected CMT membranes; type: biochemical, canine; details: 0-100 µM; membranes preincubated with 5 mM Mn²⁺ and 100 µM forskolin for 10 minutes
T2 construct: expressed in transfected cells; host or cells: CMT cells, crude membrane preparation
Procedure: Figure 7 depicts the effect of adenosine and its analogues on type V adenylyl cyclase activity. Membrane (transfected with pcDNA112-72 or control) are preincubated with 5 mM Mn²⁺ and 100 µM forskolin for 10 minutes prior to the assay. […] Each point in the average of triplicate determinations.
Another feature of adenylyl cyclase is its inhibition through an allosteric purine binding or P-site (6). […] This is more apparent when the enzyme is first activated by the addition of Mn²⁺, forskolin. The order of potency was as follows: 2'-deoxy-3'-AMD>3'-AMP>2'-deoxyadenosine>adenosine (Figure 7).

type V adenylyl cyclase [2] = biological target: T2, type V adenylyl cyclase; assay: Calcium/calmodulin sensitivity of adenylyl cyclase activity, transfected CMT cell membranes; type: biochemical, canine; details: 30 µg crude CMT cell membrane; 0-1 mM calcium (CaCl₂); membranes washed with EGTA
Procedure: Figure 6 depicts the effect of calcium on type V adenylyl cyclase activity. Adenylyl cyclase activity (CMT cells transfected with pcDNA113-72 or cardiac sarcolemma) is measured in the presence of increasig concentrations of calcium (0-1 mM). Cardiac sarcolemma is prepared as described (26). Both membrane preparations are first washed with EGTA prior to assay (27). Similar results are obtained in three independent experiments. The efficiency of transfection is confirmed by at least a 4-fold increase in both basal and forskolin-stimulated adenylyl cyclase activities over control.
The calcium/calmodulin sensitivity of this protein is also assessed. […] Thirty µg of the crude CMT cell membrane preparation are incubated in the presence of increasing concentrations of CaCl₂. […] The adenylyl cyclase activity also is assessed in canine cardiac sarcolemma.

[3] = 10 mM sodium fluoride, 100 µM GTPγS

T1 sequence (P30803 82-1265 limits assumed): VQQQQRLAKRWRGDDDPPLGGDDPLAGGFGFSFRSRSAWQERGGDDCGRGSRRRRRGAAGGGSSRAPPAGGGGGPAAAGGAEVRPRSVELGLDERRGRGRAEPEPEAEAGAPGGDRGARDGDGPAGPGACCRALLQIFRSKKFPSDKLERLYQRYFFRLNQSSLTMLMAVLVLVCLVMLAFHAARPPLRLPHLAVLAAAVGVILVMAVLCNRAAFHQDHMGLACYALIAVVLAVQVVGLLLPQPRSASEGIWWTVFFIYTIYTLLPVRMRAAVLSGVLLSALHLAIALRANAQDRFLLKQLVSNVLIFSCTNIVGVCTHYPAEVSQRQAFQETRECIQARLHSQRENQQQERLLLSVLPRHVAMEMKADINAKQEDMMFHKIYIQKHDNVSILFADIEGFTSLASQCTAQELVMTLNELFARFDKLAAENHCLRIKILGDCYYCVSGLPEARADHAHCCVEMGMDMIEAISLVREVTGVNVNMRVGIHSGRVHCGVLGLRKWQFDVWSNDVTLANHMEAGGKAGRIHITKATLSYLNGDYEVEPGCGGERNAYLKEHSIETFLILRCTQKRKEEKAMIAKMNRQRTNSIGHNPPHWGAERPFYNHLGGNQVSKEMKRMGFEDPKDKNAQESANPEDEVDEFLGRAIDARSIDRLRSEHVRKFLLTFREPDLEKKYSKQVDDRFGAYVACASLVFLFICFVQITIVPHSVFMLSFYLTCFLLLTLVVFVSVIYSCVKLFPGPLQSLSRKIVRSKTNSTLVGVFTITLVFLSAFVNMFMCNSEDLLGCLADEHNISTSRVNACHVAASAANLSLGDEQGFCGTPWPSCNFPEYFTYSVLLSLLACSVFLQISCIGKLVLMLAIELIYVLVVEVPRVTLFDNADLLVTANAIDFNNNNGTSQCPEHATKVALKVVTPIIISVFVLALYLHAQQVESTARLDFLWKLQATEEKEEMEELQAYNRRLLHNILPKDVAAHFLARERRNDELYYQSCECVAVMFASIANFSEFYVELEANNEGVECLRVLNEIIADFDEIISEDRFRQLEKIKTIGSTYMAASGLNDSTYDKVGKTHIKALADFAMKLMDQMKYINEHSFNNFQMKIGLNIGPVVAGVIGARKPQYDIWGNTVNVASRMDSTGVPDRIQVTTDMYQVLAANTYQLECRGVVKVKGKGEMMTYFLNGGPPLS
T2 sequence (P30803 82-1265 limits assumed): as above

Molecule: [F-].[Na+] [NaF, sodium fluoride]
- adenylyl cyclase activity, NaF (untransfected CMT cells; 10 mM sodium fluoride): 15±3.1
- adenylyl cyclase activity, NaF (cardiac adenylyl cyclase; Transfected CMT cell membranes, 10 mM sodium fluoride, ± standard error): 41±4.7
- fold more stimulation than the control (cardiac adenylyl cyclase; [3]): 2.7 fold

Molecule: Nc1ncnc2c1ncn2[C@@H]1O[C@H](CO)[C@@H](O)[C@H]1O [adenosine]
- order of potency of inhibition of adenylyl cyclase activity (type V adenylyl cyclase [1]): 2'-deoxy-3'-AMD>3'-AMP>2'-deoxyadenosine>adenosine

Molecule: Nc1ncnc2c1ncn2[C@H]1C[C@H](O)[C@@H](CO)O1 [2'-deoxyadenosine]
- order of potency of inhibition of adenylyl cyclase activity (type V adenylyl cyclase [1]): 2'-deoxy-3'-AMD>3'-AMP>2'-deoxyadenosine>adenosine

- adenylyl cyclase activity stimulated over the control (cardiac adenylyl cyclase; in the presence of 5 mM manganese): more than 10 fold
Molecule: manganese

Molecule: Nc1ncnc2c1ncn2[C@H]1C[C@H](OP(=O)(O)O)[C@@H](CO)O1 [2'-deoxy-3'-AMD]
- order of potency of inhibition of adenylyl cyclase activity (type V adenylyl cyclase [1]): 2'-deoxy-3'-AMD>3'-AMP>2'-deoxyadenosine>adenosine

Molecule: Nc1nc2c(ncn2[C@@H]2O[C@H](COP(=O)(O)OP(=O)(O)OP(O)(O)=S)[C@@H](O)[C@H]2O)c(=O)[nH]1 [GTPγS]
- adenylyl cyclase activity, GTPγS (untransfected CMT cells; 100 µM GTPγS): 30± 4.5
- adenylyl cyclase activity, GTPγS (cardiac adenylyl cyclase; Transfected CMT cell membranes, 100 µM GTPγS, ± standard error): 84±12.5
- fold more stimulation than the control (cardiac adenylyl cyclase; [3]): 2.8 fold

Molecule: Nc1ncnc2c1ncn2[C@@H]1O[C@H](CO)[C@@H](OP(=O)(O)O)[C@H]1O [3'-AMP]
- order of potency of inhibition of adenylyl cyclase activity (type V adenylyl cyclase [1]): 2'-deoxy-3'-AMD>3'-AMP>2'-deoxyadenosine>adenosine

Molecule: CaCl₂ [calcium]
- effect of calcium on adenylyl cyclase activity (type V adenylyl cyclase [2]): inhibited in a concentration-dependent manner
